Results taken from patent EP0255028A2 (priority 1986, dated 1988).
Where two headings read alike, the source gives them in different places.

Key:
[1] = tested on: durch PAF induzierte Aggregation von Humanthrambozyten; experiment: Inhibition of PAF-induced platelet aggregation in vitro (Born and Cross method); type: cell-based; settings: Homo sapiens
Text: 1. In vitro Untersuchun^qen: Hemmung der Blutplättchen-Aqqreqation
Zur Bestimmung der PAF-antagonistischen Wirkung von Substanzen wurde die durch PAF induzierte Aggregation von Humanthrambozyten in vitro verwendet. Zur Gewinnung von thrombozytenreichem Plasma (TRP) erfolgt die Blutentnahme aus einer nicht gestauten Vene mit Hilfe einer Plastikspritze, in der sich 3,8 %ige Natriumcitratlösung befindet. Das Verhältnis zwischen Natriumcitratlösung und Blut beträgt 1:9. Nach vorsichtiger Durchmischung wird das Citratblut bei 150 x g (1200 U/min) 20 Minuten lang zentrifugiert. Die Messung der Thrombozytenaggregation erfolgt nach dem von Born und Cross ausgearbeiteten Verfahren (G. V. R. Born und M.J. Cross, J. Physiol. 168, 178 (1963)), wobei dem TRP unter ständigem Rühren PAF als Auslöser der Aggregation zugesetzt wird.
Die Prüfsubstanz wird jeweils 2 - 3 Minuten vor Auslösung der Aggregation in einem Volumen von 10 µl zugesetzt. Als Lösungsmittel dienen entweder Aqua.dest., Ethanol und/oder Dimethylsulgoxyd. Kontrollansätze erhalten entsprechende Volumina dieser Lösungsmittel. Nach Registrierung der Ausgangsabsorption (2-3 Minuten) wird die Aggregation mit PAF (5 x 10^-8M) induziert.
Zur Beurteilung von Substanzeffekten wird das Maximum der ersten Aggregationswelle verwendet. Die durch PAF induzierte maximale Absorptionsrate maximale Aggregation x 100 %) wird jeweils gleichzeitig in einem Parallelansatz (= Kontrollansatz in einem der Kanäle des 2 Kanal-Aggregometers) zu jedem Testansatz (zweiter Kanal) mitgeprüft und als 100 %-Wert verwendet.
Der unter dem Einfluß der Testsubstanz erreichte Aggregationswert wird als 100 % angegeben.
Jede Prüfsubstanz wird bei Konzentrationen von 10^-3 bis 10^-8M mit einem Stichprobenumfang von jeweils n= 4 hinsichtlich einer hemmenden Wirkung auf die durch PAF induzierte Thrombozytenaggregation untersucht. Danach wird eine Konzentrations-Wirkungskurve anhand von 3 Konzentrationen erstellt und die IK50 (Konzentration bei einer 50%igen Aggregationsheinmung) ermittelt. Die IK-Werte von Verbindungen der allgemeinen Formel I bewegen sich im allgemeinen um Werte, die kleiner als 9 µM sind.

[2] = target: Flunitrazopam-Bindungstest; experiment: Flunitrazepam binding test (FNB); settings: read-out: IK50-Wert FNB
[3] = read-out: IK50 (Konzentration bei einer 50%igen Aggregationshemmung)

Cc1cnc2n1-c1ccc(OCc3cccnc3)cc1C(c1ccccc1)=NC2 (atropisomer, axis not shown) [(m)]
IC50 ([1]; read-out: IK50-Wert PAF): 100 nM

CCOC(=O)CCCOc1ccc2c(c1)C(c1ccccc1Cl)=NCc1nnc(C)n1-2 [(a), 8-(3-Ethoxycarbonyl-propyloxy)-1-Methyl-6-(2-chlorphenyl)-4H-(1,2,4]triazolo(4,3-a][1,4]benzodiazepin]
IC50 [2]: 570 nM
IC50 ([1]; read-out: IK50-Wert PAF): 1300 nM

Cc1nnc2n1-c1ccc(OCC(=O)NCC(C)C)cc1C(c1ccccc1Cl)=NC2 [(b)]
IC50 [2]: 40 nM
IC50 ([1]; read-out: IK50-Wert PAF): 400 nM

Cc1nnc2n1-c1ccc(OCC(=O)NC3CCN(C)CC3)cc1C(c1ccccc1Cl)=NC2 [(c)]
IC50 [2]: 2160 nM
IC50 ([1]; read-out: IK50-Wert PAF): 800 nM

Cc1nnc2n1-c1ccc(OCCN3CCOCC3)cc1C(c1ccccc1Cl)=NC2 [(d)]
IC50 [2]: 2680 nM
IC50 ([1]; read-out: IK50-Wert PAF): 300 nM

Cc1nnc2n1-c1ccc(OCCN3C(=O)c4ccccc4C3=O)cc1C(c1ccccc1Cl)=NC2 [(e)]
IC50 ([1]; read-out: IK50-Wert PAF): 300 nM

Cc1nnc2n1-c1ccc(C3=NC(C)(C)CO3)cc1C(c1ccccc1Cl)=NC2 [(f)]
IC50 [2]: 800 nM
IC50 ([1]; read-out: IK50-Wert PAF): 400 nM

Cc1nnc2n1-c1ccc(C(=O)NCCN3CCOCC3)cc1C(c1ccccc1Cl)=NC2 [(g)]
IC50 [2]: > 5000 nM
IC50 ([1]; read-out: IK50-Wert PAF): 900 nM

Cc1nnc2n1-c1ccc(C(=O)OCCCN(C)C)cc1C(c1ccccc1Cl)=NC2 [(h)]
IC50 ([1]; read-out: IK50-Wert PAF): 1200 nM

Cc1nnc2n1-c1ccc(OCCN3CCOCC3)cc1C(c1ccccc1Cl)NC2 (centres unmarked) [(i)]
IC50 [2]: 4550 nM
IC50 ([1]; read-out: IK50-Wert PAF): 400 nM

Cc1nnc2n1-c1ccc(OCCCN3CCOCC3)cc1C(c1ccccc1)=NC2 [(j)]
IC50 [2]: > 5000 nM
IC50 ([1]; read-out: IK50-Wert PAF): 100 nM

Cc1nnc2n1-c1ccc(OCc3cccnc3)cc1C(c1ccccc1)=NC2 [(k)]
IC50 [2]: 1420 nM
IC50 ([1]; read-out: IK50-Wert PAF): 200 nM

Cc1cnc2n1-c1ccc(OCCCN3CCOCC3)cc1C(c1ccccc1)=NC2 [(l)]
IC50 [2]: > 5000 nM
IC50 ([1]; read-out: IK50-Wert PAF): 100 nM

Cc1nnc2n1-c1ccc(Cl)cc1C(c1ccccc1)=NC2 [Alprazolam, reference compound]
IC50 [2]: 5.5 nM
IC50 [1, 3]: 14000 nM
IC50 ([1]; read-out: IK50-Wert PAF): 14000 nM

Cc1nnc2n1-c1ccc(Cl)cc1C(c1ccccc1Cl)=NC2 [Triazolam, reference compound]
IC50 [2]: 1.4 nM
IC50 [1, 3]: 9000 nM
IC50 ([1]; read-out: IK50-Wert PAF): 9000 nM
